These results are taken from BindingDB's records for doi:10.1021/jm021089h (Institute of Biomedical Chemistry of Russian Academy of …, 2003).

The target in this assay is Angiotensin-converting enzyme (Bos taurus) (UniProt P12820). Kind of assay: Inhibitory activity against Angiotensin I converting enzyme (ACE) from bovine kidney.
Angiotensin-converting enzyme (Bos taurus), sequence (P12820 whole entry, looked up): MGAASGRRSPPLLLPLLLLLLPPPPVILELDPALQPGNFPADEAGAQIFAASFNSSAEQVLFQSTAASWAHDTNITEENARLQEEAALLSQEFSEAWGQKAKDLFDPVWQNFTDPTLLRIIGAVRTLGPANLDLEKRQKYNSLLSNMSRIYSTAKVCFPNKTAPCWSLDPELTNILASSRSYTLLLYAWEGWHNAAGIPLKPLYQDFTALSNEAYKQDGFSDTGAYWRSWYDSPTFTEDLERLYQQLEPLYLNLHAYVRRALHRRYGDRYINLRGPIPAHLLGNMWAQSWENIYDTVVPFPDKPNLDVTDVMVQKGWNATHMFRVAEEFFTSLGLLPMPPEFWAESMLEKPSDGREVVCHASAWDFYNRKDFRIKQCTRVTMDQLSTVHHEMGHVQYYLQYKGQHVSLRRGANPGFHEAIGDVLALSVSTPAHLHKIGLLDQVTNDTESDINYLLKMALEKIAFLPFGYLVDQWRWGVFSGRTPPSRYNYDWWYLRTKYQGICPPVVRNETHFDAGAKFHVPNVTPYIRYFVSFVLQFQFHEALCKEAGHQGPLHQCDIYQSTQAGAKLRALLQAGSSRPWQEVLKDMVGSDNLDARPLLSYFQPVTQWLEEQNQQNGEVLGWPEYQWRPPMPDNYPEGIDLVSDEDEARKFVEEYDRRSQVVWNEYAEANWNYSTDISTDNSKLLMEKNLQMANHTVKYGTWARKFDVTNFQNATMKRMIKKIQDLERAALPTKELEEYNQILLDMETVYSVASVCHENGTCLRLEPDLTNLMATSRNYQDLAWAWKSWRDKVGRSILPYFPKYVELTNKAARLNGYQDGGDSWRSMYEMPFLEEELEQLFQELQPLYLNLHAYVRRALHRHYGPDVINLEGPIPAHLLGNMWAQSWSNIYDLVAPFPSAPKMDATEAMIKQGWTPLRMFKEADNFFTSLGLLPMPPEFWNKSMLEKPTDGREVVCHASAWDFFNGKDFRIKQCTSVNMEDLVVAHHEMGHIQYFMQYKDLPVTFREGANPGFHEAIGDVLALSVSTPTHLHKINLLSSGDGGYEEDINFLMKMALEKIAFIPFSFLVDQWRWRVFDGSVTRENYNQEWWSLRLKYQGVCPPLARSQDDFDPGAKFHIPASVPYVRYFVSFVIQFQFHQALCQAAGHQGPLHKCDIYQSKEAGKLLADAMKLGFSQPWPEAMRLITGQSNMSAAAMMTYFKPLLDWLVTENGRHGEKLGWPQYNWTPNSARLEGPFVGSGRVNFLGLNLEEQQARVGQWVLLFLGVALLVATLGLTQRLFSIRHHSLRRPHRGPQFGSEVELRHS
What is called IC50 is the point on the concentration scale where inhibition reaches its midpoint. The low end stands for higher potency, the high end for lower potency. `CC1CCCC(C(=O)O)N1C(=O)CCS` (stereo not drawn) [1-(3-Mercapto-propionyl)-6-methyl-piperidine-2-carboxylic acid] returned an IC50 of 1 nM. The same measure for `CC(=O)SCC(C)C(=O)NCc1ccccc1` (stereo not drawn) [Thioacetic acid S-(2-benzylcarbamoyl-propyl) ester]: 500000 nM; for `CC(=O)SCC(C)C(=O)Nc1ccccc1` (stereo not drawn) [Thioacetic acid S-(2-phenylcarbamoyl-propyl) ester]: 300 nM.
